Data on 14 compounds can be found in patent US8871753B2, “Macrocyclic compounds and their use as kinase inhibitors” (Incyte Corporation, priority 2008, dated 2014).

Counter-ions that a name gives are not always drawn. Like-named read-outs stand apart in the source and are kept apart here.

Holding throughout (assay type): biochemical
In experiment [1] the target is T1, human JAK1 (a.a. 837-1142) (Homo sapiens, UniProt P23458).
T1 construct: human JAK1 (a.a. 837-1142); His tag (N); made in house; host or cells: insect cells (baculovirus)
In words: In vitro JAK kinase assay (HTRF, phosphorylation of a biotinylated peptide), JAK1. As to conditions: read-out: JAK1 IC50. In a few lines:
(§1)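 Phosphorylation of a biotinylated peptide by the JAK kinase domain, detected by HTRF with Eu-Py20 and SA-APC. ATP was 90 μM for JAK1, 30 μM for JAK2 and 3 μM for JAK3. Reactions ran 1 h at room temperature and were stopped with EDTA, followed by 40 min antibody binding.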
Background: Time-resolved FRET reads energy transfer from a long-lived donor to a nearby acceptor.

Experiment [2] has as its target T2, human JAK3 (a.a. 781-1124) (Homo sapiens, UniProt P52333).
T2 construct: JAK3 (a.a. 781-1124); His tag (N); made in house; host or cells: insect cells (baculovirus)
The experiment can be described thus: In vitro JAK kinase assay (HTRF, phosphorylation of a biotinylated peptide), JAK3. In a few lines:
as §1

The target of another experiment is TYK2 (Homo sapiens, UniProt P29597). In words: TYK2 kinase inhibition (Table A1).
The target of experiment [3] is T3, Recombinant Human Anaplastic Lymphoma Kinase (Homo sapiens, UniProt Q9UM73).
T3 construct: purchased Invitrogen, Carlsbad, Calif
The experiment can be described thus: ALK HTRF kinase assay. In a few lines: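 Recombinant human ALK phosphorylated a biotinylated synthetic peptide. Phosphotyrosine was detected by TR-FRET between a Eu-labelled anti-phosphotyrosine antibody and streptavidin-allophycocyanin. IC50 values came from fitting signal against inhibitor concentration to a four-parameter logistic equation with variable Hill slope.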

The target of experiment [4] is T4, human JAK2 (a.a. 828-1132) (Homo sapiens, UniProt O60674).
T4 construct: JAK2 (a.a. 828-1132); His tag (N); made in house; host or cells: insect cells (baculovirus)
In words: In vitro JAK kinase assay (HTRF, phosphorylation of a biotinylated peptide), JAK2. An outline of the steps:
as §1

The mark [5] stands for this setting: compound at a concentration of 500 nM or 1 mM (not specified), cells shown as percentage.
[6] abbreviates: method AA1 (90 μM ATP) or AA2 (1000 μM ATP), not stated per value.
The mark [7] stands for this setting: method AA1 (3 μM ATP) or AA2 (1000 μM ATP), not stated per value.
[8] abbreviates: compound at 500 nM or 1 mM, 90 μM ATP.
Where [9] appears, read: method AA1 (30 μM ATP) or AA2 (1000 μM ATP), not stated per value.
Where [10] appears, read: Table B1, cells without percent sign.

T2 sequence (P52333 781-1124): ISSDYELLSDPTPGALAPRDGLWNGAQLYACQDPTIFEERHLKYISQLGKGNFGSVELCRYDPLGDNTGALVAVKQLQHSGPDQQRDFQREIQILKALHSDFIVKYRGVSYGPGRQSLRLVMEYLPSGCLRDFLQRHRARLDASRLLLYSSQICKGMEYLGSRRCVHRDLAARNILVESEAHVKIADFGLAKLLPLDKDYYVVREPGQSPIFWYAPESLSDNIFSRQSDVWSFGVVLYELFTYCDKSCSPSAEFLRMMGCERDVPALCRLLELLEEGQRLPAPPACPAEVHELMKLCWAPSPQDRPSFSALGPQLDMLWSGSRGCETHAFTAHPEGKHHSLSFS
T1 sequence (P23458 849-1154): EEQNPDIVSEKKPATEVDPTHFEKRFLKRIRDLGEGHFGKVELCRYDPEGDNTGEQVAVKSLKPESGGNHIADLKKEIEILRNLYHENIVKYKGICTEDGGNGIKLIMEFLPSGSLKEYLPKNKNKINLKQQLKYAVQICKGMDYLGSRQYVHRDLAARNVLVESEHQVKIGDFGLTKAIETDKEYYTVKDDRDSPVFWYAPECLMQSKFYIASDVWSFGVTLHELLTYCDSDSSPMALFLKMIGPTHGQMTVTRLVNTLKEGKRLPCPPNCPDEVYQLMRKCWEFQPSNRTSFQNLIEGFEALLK
T4 sequence (O60674 828-1132): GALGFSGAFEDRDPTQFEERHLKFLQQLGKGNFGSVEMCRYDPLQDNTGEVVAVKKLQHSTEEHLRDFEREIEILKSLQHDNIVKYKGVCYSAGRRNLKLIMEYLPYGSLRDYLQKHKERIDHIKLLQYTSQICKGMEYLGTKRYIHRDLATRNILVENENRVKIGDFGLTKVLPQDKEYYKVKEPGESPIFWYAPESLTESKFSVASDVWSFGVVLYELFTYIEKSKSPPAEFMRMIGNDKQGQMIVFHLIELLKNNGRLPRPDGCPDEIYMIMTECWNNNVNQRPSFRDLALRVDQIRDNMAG
T3 sequence (Q9UM73 19-1620): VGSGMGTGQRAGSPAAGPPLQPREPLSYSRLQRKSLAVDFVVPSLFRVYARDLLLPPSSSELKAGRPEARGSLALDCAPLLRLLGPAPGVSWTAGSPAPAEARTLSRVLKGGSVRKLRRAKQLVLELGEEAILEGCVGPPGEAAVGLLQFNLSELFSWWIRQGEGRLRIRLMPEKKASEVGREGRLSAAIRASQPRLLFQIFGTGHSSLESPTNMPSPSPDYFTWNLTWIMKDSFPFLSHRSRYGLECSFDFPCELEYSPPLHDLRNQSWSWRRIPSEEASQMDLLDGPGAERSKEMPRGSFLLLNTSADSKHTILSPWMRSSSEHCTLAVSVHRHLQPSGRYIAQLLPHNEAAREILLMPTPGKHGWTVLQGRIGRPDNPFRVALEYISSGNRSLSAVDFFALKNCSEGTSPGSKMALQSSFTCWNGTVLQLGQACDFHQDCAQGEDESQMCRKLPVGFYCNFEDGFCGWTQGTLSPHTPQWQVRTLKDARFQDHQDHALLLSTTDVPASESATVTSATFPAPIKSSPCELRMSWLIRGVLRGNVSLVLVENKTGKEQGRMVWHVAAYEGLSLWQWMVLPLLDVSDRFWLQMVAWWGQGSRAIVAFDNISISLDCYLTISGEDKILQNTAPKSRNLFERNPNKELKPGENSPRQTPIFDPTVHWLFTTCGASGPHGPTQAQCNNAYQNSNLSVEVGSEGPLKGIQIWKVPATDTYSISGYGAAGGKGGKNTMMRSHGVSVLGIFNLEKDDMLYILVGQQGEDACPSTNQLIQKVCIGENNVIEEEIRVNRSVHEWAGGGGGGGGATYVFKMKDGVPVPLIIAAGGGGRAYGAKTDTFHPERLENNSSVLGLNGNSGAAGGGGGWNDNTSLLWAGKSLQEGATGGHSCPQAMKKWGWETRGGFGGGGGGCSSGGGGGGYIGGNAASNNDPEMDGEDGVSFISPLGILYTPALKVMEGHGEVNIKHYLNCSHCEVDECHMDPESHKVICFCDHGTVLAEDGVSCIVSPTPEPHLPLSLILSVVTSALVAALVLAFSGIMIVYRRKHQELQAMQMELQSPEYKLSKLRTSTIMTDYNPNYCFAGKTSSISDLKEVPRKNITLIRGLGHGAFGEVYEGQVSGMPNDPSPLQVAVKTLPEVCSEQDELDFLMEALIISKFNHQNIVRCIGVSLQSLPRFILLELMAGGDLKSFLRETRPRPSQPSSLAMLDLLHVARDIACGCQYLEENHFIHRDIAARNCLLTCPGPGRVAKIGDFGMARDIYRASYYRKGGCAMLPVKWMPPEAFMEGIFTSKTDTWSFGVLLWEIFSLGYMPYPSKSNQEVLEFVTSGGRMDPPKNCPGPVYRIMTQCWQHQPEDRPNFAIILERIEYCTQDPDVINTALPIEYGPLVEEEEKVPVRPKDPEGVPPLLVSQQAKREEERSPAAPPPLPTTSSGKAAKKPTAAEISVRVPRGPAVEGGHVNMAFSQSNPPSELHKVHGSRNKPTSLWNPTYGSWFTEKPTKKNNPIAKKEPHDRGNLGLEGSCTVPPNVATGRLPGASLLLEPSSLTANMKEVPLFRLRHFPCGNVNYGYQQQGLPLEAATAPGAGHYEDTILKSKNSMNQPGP
Chain of TYK2 (P29597 whole entry): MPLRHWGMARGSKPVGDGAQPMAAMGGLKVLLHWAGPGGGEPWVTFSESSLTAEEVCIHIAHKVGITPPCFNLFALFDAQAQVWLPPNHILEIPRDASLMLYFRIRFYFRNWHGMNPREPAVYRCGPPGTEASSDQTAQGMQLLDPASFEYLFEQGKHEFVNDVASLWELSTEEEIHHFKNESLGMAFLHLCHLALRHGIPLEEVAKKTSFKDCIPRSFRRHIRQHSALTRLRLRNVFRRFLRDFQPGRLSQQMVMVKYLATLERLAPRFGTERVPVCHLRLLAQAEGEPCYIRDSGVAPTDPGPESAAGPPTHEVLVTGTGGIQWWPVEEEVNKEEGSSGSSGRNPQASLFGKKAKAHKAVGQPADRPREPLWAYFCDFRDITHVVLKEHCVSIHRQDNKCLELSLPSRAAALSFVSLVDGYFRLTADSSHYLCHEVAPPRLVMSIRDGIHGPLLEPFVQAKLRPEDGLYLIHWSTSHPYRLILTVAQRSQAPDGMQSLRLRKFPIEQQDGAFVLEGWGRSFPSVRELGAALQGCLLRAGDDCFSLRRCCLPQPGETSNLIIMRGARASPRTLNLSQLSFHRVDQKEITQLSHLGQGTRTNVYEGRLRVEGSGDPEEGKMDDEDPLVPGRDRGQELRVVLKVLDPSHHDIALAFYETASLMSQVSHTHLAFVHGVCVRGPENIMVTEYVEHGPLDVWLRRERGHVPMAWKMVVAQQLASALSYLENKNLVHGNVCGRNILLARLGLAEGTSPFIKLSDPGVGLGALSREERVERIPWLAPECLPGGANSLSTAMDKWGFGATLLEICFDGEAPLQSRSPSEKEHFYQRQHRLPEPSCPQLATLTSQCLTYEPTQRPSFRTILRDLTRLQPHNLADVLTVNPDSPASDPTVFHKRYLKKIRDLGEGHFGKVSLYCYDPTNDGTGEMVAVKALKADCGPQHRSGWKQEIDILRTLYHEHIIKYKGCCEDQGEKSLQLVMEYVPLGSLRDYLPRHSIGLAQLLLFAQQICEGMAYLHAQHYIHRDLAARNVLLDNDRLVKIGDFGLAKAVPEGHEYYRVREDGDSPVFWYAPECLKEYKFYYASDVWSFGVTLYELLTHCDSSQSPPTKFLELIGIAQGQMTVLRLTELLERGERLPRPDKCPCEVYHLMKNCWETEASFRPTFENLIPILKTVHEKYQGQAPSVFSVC

As a reminder, the IC50 is the midpoint of a concentration-inhibition curve. For the compound `CCOC(=O)c1coc(Nc2ccc3cc2CCc2cccc(c2)Nc2ncc(Cl)c(n2)N3)n1` [Example B278, Ethyl 2-{[6-chloro-2,4,8,22-tetraazatetracyclo[14.3.1.1(3,7).1(9,13)]docosa-1(20),3(22),4,6,9(21),10,12,16,18-nonaen-12-yl]amino}-1,3-oxazole-4-carboxylate bis(trifluoroacetate)], the half-maximal inhibitory concentration (IC50) in experiment [1] (Table B1) turned out to be 0.047 µM; in experiment [2] (Table B1), 1.85 µM; on TYK2 (Table B1) it was 0.222 µM; in experiment [4] (Table B1) it was 0.126 µM. For the same compound, in experiment [3] (setting [5]), the “ALK % of inhibition at a concentration of 500 nM or 1 mM” value (“ALK % of inhibition” below) was found to be 10%.

On to `CCS(=O)(=O)N1CCC(CC(=O)Nc2ccc3cc2CCc2cncc(c2)Nc2ncc(Cl)c(n2)N3)CC1` [Example A98, N-[6-Chloro-2,4,8,18,22-pentaazatetracyclo[14.3.1.1(3,7).1(9,13)]docosa-1(20),3(22),4,6,9(21),10,12,16,18-nonaen-12-yl]-2-[1-(ethylsulfonyl)piperidin-4-yl]acetamide bis(trifluoroacetate)], for which the IC50 in experiment [1] (setting [6]) came out at 0.001 µM; in experiment [2] (setting [7]) it was 0.055 µM; at TYK2 it was 0.0053 µM; in experiment [4] (setting [9]), 0.0027 µM. In addition, the “ALK % of inhibition” value in experiment [3] (setting [8]) is given as 34%.

Regarding `CC(C)S(=O)(=O)c1ccc2cc1Nc1nc(ncc1Cl)Nc1cccc(c1)CC2` [Example A8, 6-Chloro-10-(isopropylsulfonyl)-2,4,8,22-tetraazatetracyclo[14.3.1.1(3,7).1(9,13)]docosa-1(20),3(22),4,6,9(21),10,12,16,18-nonaene trifluoroacetate], the 50% inhibitory concentration (IC50) amounted to 0.051 µM in experiment [1] (setting [6]); 0.02 µM in experiment [2] (setting [7]); 0.08 µM at TYK2; 0.08 µM in experiment [3] (90 μM ATP); 0.052 µM in experiment [4] (setting [9]).

`N#Cc1cccc(S(=O)(=O)Nc2ccc3cc2CCc2cccc(c2)Nc2ncc(Cl)c(n2)N3)c1` [Example B153, N-[6-Chloro-2,4,8,22-tetraazatetracyclo[14.3.1.1(3,7).1(9,13)]docosa-1(20),3(22),4,6,9(21),10,12,16,18-nonaen-12-yl]-3-cyanobenzenesulfonamide trifluoroacetate]: the IC50 in experiment [1] (Table B1) came out at 0.00069 µM; in experiment [2] (Table B1), 0.00048 µM; against TYK2 (Table B1) it was 0.00044 µM; in experiment [3] (setting [10]), 0.07 µM; in experiment [4] (Table B1), 0.0001 µM.

Consider `Cc1ccc2cc1Nc1ncc(Cl)c(n1)Nc1cccc(c1)CC2` [Example A7, 6-Chloro-19-methyl-2,4,8,22-tetraazatetracyclo[14.3.1.1(3,7).1(9,13)]docosa-1(20),3(22),4,6,9(21),10,12,16,18-nonaene trifluoroacetate], for which the IC50 in experiment [1] (setting [6]) was determined as 0.128 µM; in experiment [2] (setting [7]), 0.3 µM; on TYK2 it was 0.15 µM; in experiment [3] (90 μM ATP), 0.523 µM; in experiment [4] (setting [9]), 0.032 µM.

In the case of `O=C(Nc1ccc2c(c1)CCC2)Nc1ccc2cc1CCc1cccc(c1)Nc1ncc(Cl)c(n1)N2` [Example B103, N-[6-Chloro-2,4,8,22-tetraazatetracyclo[14.3.1.1(3,7).1(9,13)]docosa-1(20), 3(22),4,6,9(21),10,12,16,18-nonaen-12-yl]-N′-(2,3-dihydro-1H-inden-5-yl)urea trifluoroacetate], the IC50 in experiment [1] (Table B1) stood at 0.009 µM; in experiment [2] (Table B1), 0.124 µM; on TYK2 (Table B1) it was 0.046 µM; in experiment [4] (Table B1) it was 0.031 µM. The “ALK % of inhibition” value in experiment [3] (setting [5]) was 49%.

Consider `O=C(CC1CCN(S(=O)(=O)c2cccnc2)CC1)Nc1ccc2cc1CCc1cncc(c1)Nc1ncc(Cl)c(n1)N2` [Example A202, N-[6-Chloro-2,4,8,18,22-pentaazatetracyclo[14.3.1.1(3,7).1(9,13)]docosa-1(20),3(22),4,6,9(21),10,12,16,18-nonaen-12-yl]-2-[1-(pyridin-3-ylsulfonyl)piperidin-4-yl]acetamide tris(trifluoroacetate)], for which the concentration for half-maximal inhibition (IC50) is 0.0007 µM in experiment [1] (setting [6]), greater than 0.2 µM in experiment [2] (setting [7]), 0.15 µM against TYK2 and 0.014 µM in experiment [4] (setting [9]). The “ALK % of inhibition” value in experiment [3] (setting [8]) was determined as 42%.

With `N#Cc1ccc(N2CCN(C(=O)Nc3ccc4cc3CCc3cncc(c3)Nc3ncc(Cl)c(n3)N4)CC2)nc1` [Example B310, N-[6-Chloro-2,4,8,18,22-pentaazatetracyclo[14.3.1.1(3,7).1(9,13)]docosa-1(20),3(22),4,6,9(21),10,12,16,18-nonaen-12-yl]-4-(5-cyanopyridin-2-yl)piperazine-1-carboxamide tris(trifluoroacetate)], the IC50 was 0.024 µM in experiment [1] (Table B1), greater than 0.4 µM in experiment [2] (Table B1), 0.044 µM at TYK2 (Table B1) and 0.061 µM in experiment [4] (Table B1). For the same compound, the “ALK % of inhibition” value in experiment [3] (percentage inhibition of the example compound at a concentration of 500 nM or 1 mM (not specified which)) came out at 74%.

Take `N#Cc1ccccc1N1CCC(CC(=O)Nc2ccc3cc2CCc2cncc(c2)Nc2ncc(Cl)c(n2)N3)CC1` [Example A220, N-[6-Chloro-2,4,8,18,22-pentaazatetracyclo[14.3.1.1(3,7).1(9,13)]docosa-1(20),3(22),4,6,9(21),10,12,16,18-nonaen-12-yl]-2-[1-(2-cyanophenyl)piperidin-4-yl]acetamide tris(trifluoroacetate)]: the IC50 is 0.013 µM in experiment [1] (setting [6]), greater than 0.2 µM in experiment [2] (setting [7]), 0.19 µM against TYK2 and 0.18 µM in experiment [4] (setting [9]). Besides, the “ALK % of inhibition” value in experiment [3] (setting [8]) stood at 18%.

For the compound `Cc1cc(C(=O)N2CCC(CC(=O)Nc3ccc4cc3CCc3cccc(c3)Nc3ncc(Cl)c(n3)N4)CC2)n[nH]1` [Example A175, N-[6-Chloro-2,4,8,22-tetraazatetracyclo[14.3.1.1(3,7).1(9,13)]docosa-1(20),3(22),4,6,9(21),10,12,16,18-nonaen-12-yl]-2-{1-[(5-methyl-1H-pyrazol-3-yl)carbonyl]piperidin-4-yl}acetamide bis(trifluoroacetate)], the concentration for half-maximal inhibition (IC50) in experiment [1] (setting [6]) was 0.001 µM; in experiment [2] (setting [7]), greater than 0.2 µM; against TYK2, 0.0018 µM; in experiment [4] (setting [9]) it was 0.013 µM. In experiment [3] (setting [8]), the “ALK % of inhibition” value came to 28%.

As for `N#Cc1ccc(S(=O)(=O)N2CCC(CC(=O)Nc3ccc4cc3CCc3cncc(c3)Nc3ncc(Cl)c(n3)N4)CC2)cc1` [Example A199, N-[6-Chloro-2,4,8,18,22-pentaazatetracyclo[14.3.1.1(3,7).1(9,13)]docosa-1(20),3(22),4,6,9(21),10,12,16,18-nonaen-12-yl]-2-{1-[(4-cyanophenyl)sulfonyl]piperidin-4-yl}acetamide bis(trifluoroacetate)], the half-maximal inhibitory concentration (IC50) is 0.032 µM in experiment [1] (setting [6]), greater than 0.2 µM in experiment [2] (setting [7]), greater than 0.2 µM against TYK2 and 0.199 µM in experiment [4] (setting [9]). Besides, in experiment [3] (setting [8]), the “ALK % of inhibition” value stood at 41%.

Consider `O=C(Nc1cc2cc(c1)OCCSc1cccc(c1)Nc1nc(ncc1Cl)N2)c1ccncc1` [Example D60, N-[6-Chloro-17-oxa-14-thia-2,4,8,24-tetraazatetracyclo[16.3.1.1(3,7).1(9,13)]tetracosa-1(22),3(24),4,6,9(23),10,12,18,20-nonaen-20-yl]isonicotinamide bis(trifluoroacetate)], for which the IC50 in experiment [1] (Table D1) was 0.002 µM; in experiment [2] (Table D1) it was 0.005 µM; on TYK2 (Table D1), 0.0013 µM; in experiment [3] (Table D1, 90 μM ATP) it was 0.13 µM; in experiment [4] (Table D1) it was 0.0006 µM.

`COc1ccc(CN2CCN(Cc3cc4cc(c3)Nc3nc(ncc3Cl)Nc3cccc(c3)CC4)CC2)cc1` [Example B197, 6-Chloro-11-{[4-(4-methoxybenzyl)piperazin-1-yl]methyl}-2,4,8,22-tetraazatetracyclo[14.3.1.1(3,7).1(9,13)]docosa-1(20),3(22),4,6,9(21),10,12,16,18-nonaene tris(trifluoroacetate)]: the half-maximal inhibitory concentration (IC50) in experiment [1] (Table B1) is 0.018 µM; in experiment [2] (Table B1) it was 0.138 µM; against TYK2 (Table B1), 0.188 µM; in experiment [3] (setting [10]), greater than 1 µM; in experiment [4] (Table B1), 0.0022 µM.

`Clc1cnc2nc1Nc1cccc(c1)NCCOc1cccc(c1)N2` [Example D72, 6-Chloro-17-oxa-2,4,8,14,24-pentaazatetracyclo[16.3.1.1(3,7).1(9,13)]tetracosa-1(22),3(24),4,6,9(23),10,12,18,20-nonaene bis(trifluoroacetate)]: the half-inhibitory concentration (IC50) in experiment [1] (Table D1) stood at 0.012 µM; in experiment [2] (Table D1), 0.0074 µM; on TYK2 (Table D1) it was 0.0069 µM; in experiment [3] (Table D1, 90 μM ATP), 0.772 µM; in experiment [4] (Table D1), 0.0022 µM.
